From PubChem BioAssay (NCI)
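Values below derive from 48-hour exposures of cells grown in 96-well plates, with endpoints linearly interpolated between the two concentrations bracketing the appropriate inhibition level. At the GI50, growth is halved. TGI is the concentration that stops growth completely.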

Assays:
Experiment in all cases: NCI anticancer screen, dose series, 48 h
SF-295 CNS = system: SF-295 CNS
CCRF-CEM leukemia = system: CCRF-CEM leukemia
KM12 colon = system: KM12 colon
HCT-116 colon = system: HCT-116 colon
K-562 leukemia = system: K-562 leukemia
NCI-H460 lung = system: NCI-H460 lung
HL-60(TB) leukemia = system: HL-60(TB) leukemia
IGROV1 ovarian = system: IGROV1 ovarian
NCI/ADR-RES ovarian = system: NCI/ADR-RES ovarian
UACC-62 melanoma = system: UACC-62 melanoma
PC-3 prostate = system: PC-3 prostate
A549 NSCLC = system: A549 NSCLC
UO-31 renal = system: UO-31 renal
ACHN renal = system: ACHN renal
UACC-257 melanoma = system: UACC-257 melanoma
MALME-3M melanoma = system: MALME-3M melanoma
MOLT-4 leukemia = system: MOLT-4 leukemia
HOP-62 NSCLC = system: HOP-62 NSCLC
CAKI-1 renal = system: CAKI-1 renal
HS 578T breast = system: HS 578T breast
MCF7 breast = system: MCF7 breast
OVCAR-4 ovarian = system: OVCAR-4 ovarian
OVCAR-3 ovarian = system: OVCAR-3 ovarian
EKVX NSCLC = system: EKVX NSCLC
RPMI-8226 leukemia = system: RPMI-8226 leukemia
BT-549 breast = system: BT-549 breast
NCI-H23 lung = system: NCI-H23 lung
RXF 393 renal = system: RXF 393 renal
MDA-MB-435 = system: MDA-MB-435

For CN(C)c1nc(NCCNS(=O)(=O)c2ccc(C(=O)/C=C/c3ccc(F)cc3)cc2)nc(Nc2ccc(F)cc2)n1, the GI50 (SF-295 CNS) was 3.4 µM, the TGI (SF-295 CNS) was 13 µM and the GI50 (CCRF-CEM leukemia) was 3.42 µM. It also gave a TGI (CCRF-CEM leukemia) of over 100 µM, a GI50 (KM12 colon) of 2 µM and a TGI (KM12 colon) of 4.41 µM. It also gave a GI50 (HCT-116 colon) of 1.6 µM, a TGI (HCT-116 colon) of 3.01 µM and a GI50 (K-562 leukemia) of 2.42 µM. For the same compound, the TGI (K-562 leukemia) was 6.8 µM, the GI50 (NCI-H460 lung) was 2.45 µM and the TGI (NCI-H460 lung) was 6.92 µM. The GI50 (HL-60(TB) leukemia) was 2.04 µM, the TGI (HL-60(TB) leukemia) was 6.34 µM and the GI50 (IGROV1 ovarian) was 4.27 µM. The TGI (IGROV1 ovarian) was 15 µM, the GI50 (NCI/ADR-RES ovarian) was 3.25 µM and the TGI (NCI/ADR-RES ovarian) was 11.6 µM. It also gave a GI50 (UACC-62 melanoma) of 3.57 µM, a TGI (UACC-62 melanoma) of 14.6 µM and a GI50 (PC-3 prostate) of 2.76 µM. The TGI (PC-3 prostate) was 10.6 µM, the GI50 (A549 NSCLC) was 3.41 µM and the TGI (A549 NSCLC) was 14.2 µM. The GI50 (UO-31 renal) was 2.9 µM, the TGI (UO-31 renal) was 11.9 µM and the GI50 (ACHN renal) was 3.13 µM. For the same compound, the TGI (ACHN renal) was 10.9 µM, the GI50 (UACC-257 melanoma) was 3.61 µM and the TGI (UACC-257 melanoma) was 15.2 µM. For the same compound, the GI50 (MALME-3M melanoma) was 3.42 µM, the TGI (MALME-3M melanoma) was 12.4 µM and the GI50 (MOLT-4 leukemia) was 2.5 µM. The TGI (MOLT-4 leukemia) was 6.5 µM, the GI50 (HOP-62 NSCLC) was 8.39 µM and the TGI (HOP-62 NSCLC) was 23.6 µM. It also gave a GI50 (CAKI-1 renal) of 3.01 µM, a TGI (CAKI-1 renal) of 12.7 µM and a GI50 (HS 578T breast) of 6.3 µM. The TGI (HS 578T breast) was 71.5 µM, the GI50 (MCF7 breast) was 1.8 µM and the TGI (MCF7 breast) was 3.46 µM. It also gave a GI50 (OVCAR-4 ovarian) of 3.68 µM, a TGI (OVCAR-4 ovarian) of 15.6 µM and a GI50 (OVCAR-3 ovarian) of 1.74 µM. The TGI (OVCAR-3 ovarian) was 3.24 µM, the GI50 (EKVX NSCLC) was 2.95 µM and the TGI (EKVX NSCLC) was 10.9 µM. For the same compound, the GI50 (RPMI-8226 leukemia) was 2.42 µM, the TGI (RPMI-8226 leukemia) was 6.92 µM and the GI50 (BT-549 breast) was 4.87 µM. The TGI (BT-549 breast) was 17.1 µM, the GI50 (NCI-H23 lung) was 4.17 µM and the TGI (NCI-H23 lung) was 15.6 µM. The GI50 (RXF 393 renal) was 2.26 µM, the TGI (RXF 393 renal) was 7.51 µM and the GI50 (MDA-MB-435) was 2.32 µM. The TGI (MDA-MB-435) was 5.69 µM.
